Results on 4 compounds are retold here after patent US9321774B2, “Pyrrolobenzodiazepines” (MEDIMMUNE LIMITED, priority 2012, dated 2016).

The structures appear in SMILES notation. ≈ marks a conversion by molar mass, not a printed value. Like-named read-outs stand apart in the source and are kept apart here.

What all share (experiment): CLSI broth microplate assay, MIC
Common to all, as to format: cell-based

The test system of one assay is MRSA strain EMRSA-16. The conditions noted are these: Staphylococcus aureus, read-out: Minimum inhibitory concentration (MIC mg/L) EMRSA-16.
The subject of another assay is E. faecalis VRE1. The conditions noted are these: Enterococcus faecalis.
The test system of another assay is MRSA strain EMRSA-15. The conditions noted are these: Staphylococcus aureus, read-out: Minimum inhibitory concentration (MIC mg/L) EMRSA-15.
Assay [1] concerns community-associated MRSA isolate USA300. The conditions noted are these: Staphylococcus aureus, read-out: Minimum inhibitory concentration (MIC mg/L) USA300.
The next assay has as its system MRSA strain BB568. The conditions noted are these: Staphylococcus aureus, read-out: Minimum inhibitory concentration (MIC mg/L) BB568.
For assay [2], the system named is S. aureus VISA strain Mu50. The conditions noted are these: Staphylococcus aureus, read-out: Minimum inhibitory concentration (MIC mg/L) Mu50.
For a further assay, the system named is E. faecium VRE10. The conditions noted are these: Enterococcus faecium.
Where [3] appears, read: VRE1, read-out: Minimum inhibitory concentration (MIC mg/L) VRE1.
The mark [4] stands for this setting: VRE10, read-out: Minimum inhibitory concentration (MIC mg/L) VRE10.

Take `COc1cc2c(cc1OCCCC(=O)Nc1ccc(-c3cc(C(=O)Nc4ccc(N5CCOCC5)nc4)n(C)c3)cc1)N=C[C@@H]1CCCN1C2=O` [Compound 53, (S)-4-(4-(4-((7-methoxy-5-oxo-2,3,5,11a-tetrahydro-1H-benzo[e]pyrrolo[1,2-a][1,4]diazepin-8-yl)oxy)butanamido)phenyl)-1-methyl-N-(6-morpholinopyridin-3-yl)-1H-pyrrole-2-carboxamide]: the MIC with MRSA strain EMRSA-16 was 2 to 4 mg/L (≈ 2.89 to 5.78 µM); with E. faecalis VRE1 (setting [3]) it was 1 mg/L (≈ 1.45 µM); in the assay with MRSA strain EMRSA-15 it was 1 mg/L (≈ 1.45 µM); in assay [1], 4 mg/L (≈ 5.78 µM); with MRSA strain BB568, 4 mg/L (≈ 5.78 µM); in assay [2], 2 mg/L (≈ 2.89 µM). The MIC with E. faecium VRE10 (setting [4]) was determined as 0.5 mg/L (≈ 0.723 µM).
For the compound `COC(=O)c1cc(NC(=O)c2cc(-c3ccc(NC(=O)CCCOc4cc5c(cc4OC)C(=O)N4CCC[C@H]4C=N5)cc3)co2)cn1C` [Compound 54, (S)-methyl 4-(4-(4-(4-((7-methoxy-5-oxo-2,3,5,11a-tetrahydro-1H-benzo[e]pyrrolo[1,2-a][1,4]diazepin-8-yl)oxy)butanamido)phenyl)furan-2-carboxamido)-1-methyl-1H-pyrrole-2-carboxylate], the MIC in the assay on MRSA strain EMRSA-16 (EMRSA-16, Mueller-Hinton broth, 37° C.) was 0.06 mg/L (≈ 0.0918 µM); in the assay on E. faecalis VRE1 (VRE1, Mueller-Hinton broth, 37° C., read-out: Minimum inhibitory concentration (MIC mg/L) VRE1), 0.06 mg/L (≈ 0.0918 µM); in the assay on MRSA strain EMRSA-15 (EMRSA-15, Mueller-Hinton broth, 37° C.), less than 0.03 mg/L; in assay [1] it was 0.06 mg/L (≈ 0.0918 µM); in the assay on MRSA strain BB568 (BB568, Mueller-Hinton broth, 37° C.) it was 0.125 mg/L (≈ 0.191 µM); in assay [2] (Mu50, Mueller-Hinton broth, 37° C.), 0.03 mg/L (≈ 0.0459 µM). The MIC with E. faecium VRE10 (VRE10, Mueller-Hinton broth, 37° C., read-out: Minimum inhibitory concentration (MIC mg/L) VRE10) is less than 0.03 mg/L.
Turning to `COC(=O)c1cc(-c2ccc(NC(=O)c3cc(-c4ccc(NC(=O)CCCOc5cc6c(cc5OC)C(=O)N5CCC[C@H]5C=N6)cc4)co3)cc2)cn1C` [Compound 56, (S)-methyl 4-(4-(4-(4-(4-((7-methoxy-5-oxo-2,3,5,11a-tetrahydro-1H-benzo[e]pyrrolo[1,2-a][1,4]diazepin-8-yl)oxy)butanamido)phenyl)furan-2-carboxamido)phenyl)-1-methyl-1H-pyrrole-2-carboxylate], the MIC came out at 0.5 mg/L (≈ 0.685 µM) in the assay on MRSA strain EMRSA-16; 0.5 mg/L (≈ 0.685 µM) in the assay with E. faecalis VRE1 (setting [3]); 0.25 mg/L (≈ 0.343 µM) in the assay on MRSA strain EMRSA-15; 1 mg/L (≈ 1.37 µM) in assay [1]; 0.5 mg/L (≈ 0.685 µM) in the assay on MRSA strain BB568; 0.5 mg/L (≈ 0.685 µM) in assay [2]. In addition, in the assay on E. faecium VRE10 (setting [4]), the MIC is 0.25 mg/L (≈ 0.343 µM).
For the compound `COC(=O)c1cc(NC(=O)c2cc(NC(=O)c3cc(NC(=O)c4cc(NC(=O)c5cc(-c6ccc(NC(=O)CCCOc7cc8c(cc7OC)C(=O)N7CCC[C@H]7C=N8)cc6)cn5C)cn4C)cn3C)cn2C)cn1C` [Compound 59], the MIC in the assay on MRSA strain EMRSA-16 is 16 mg/L (≈ 15.5 µM); with E. faecalis VRE1 (setting [3]) it was 32 mg/L (≈ 31 µM); with MRSA strain EMRSA-15, 2 mg/L (≈ 1.94 µM); in assay [1], 16 to 32 mg/L (≈ 15.5 to 31 µM); with MRSA strain BB568, 16 mg/L (≈ 15.5 µM); in assay [2] it was 4 mg/L (≈ 3.87 µM). In addition, the MIC with E. faecium VRE10 (setting [4]) is 4 mg/L (≈ 3.87 µM).
